Data from patent US20240173333A1, “Treating Alagille Syndrome (ALGS)” (priority 2022, published 2024).
Marks after values point to notes of the source that are not given here.

What was measured:
[1] = system: patients with Alagille syndrome (ALGS); experiment: ASSERT pruritus responders: TEAEs
Description: (§1) Treatment with concomitant medications for pruritus was permitted provided the patient was on a stable dosage for ≥4 weeks prior to enrollment that was maintained throughout the study.
(§2) Pruritus responders were defined as patients having a ≥1-point decrease in ObsRO scratching score from baseline to weeks 21-24).

[2] = system: patients with Alagille syndrome (ALGS); experiment: ASSERT phase 3 trial: ObsRO scratching score and pruritus response; type: in vivo, human; conditions: 120 μg/kg/day
Description: Odevixibat is an orally administered, potent, luminally restricted, selective IBAT inhibitor in development to treat cholestatic liver diseases. In this phase 3, double-blind, randomized, 24-week trial (ASSERT), the efficacy and safety of odevixibat versus placebo was evaluated in patients with Alagille Syndrome (ALGS). The efficacy of odevixibat in patients with ALGS was evaluated in a 24-week, randomized, double-blind, placebo-controlled trial conducted in 52 patients with a confirmed diagnosis of ALGS (NCT04674761; ASSERT). Patients were randomized 2:1 to receive odevixibat 120 μg/kg/day or placebo.
The study consisted of a screening phase and parallel-design treatment period. Two screening visits occurred: the first took place during days −56 to −21 prior to the first dose of study drug and the second occurred during days −49 to ˜14. On day 0, all eligible patients were randomized 2:1 to oral, 120 μg/kg/day odevixibat or once-daily placebo. Eligibility for randomization was determined using pruritus or scratching reports from observer reported outcome (ObsRO)/patient reported outcome (PRO) data for evaluation of itching (PRO), scratching (ObsRO), and sleep disturbance (PRO and ObsRO) in the 14 days before Study Day 1, clinical genetic confirmation of diagnosis, and the liver biochemistry evaluations from the previous screening visits. After written informed consent was obtained, an Interactive Web Response System (IWRS) was used to assign patients to treatment. The randomization codes were computer generated by Albireo or a qualified randomization vendor.
A single primary endpoint was evaluated. The primary endpoint in this study was the change from baseline in scratching to Month 6 (Weeks 21 to 24) as measured by the observer-reported outcome (ObsRO) instrument.
Itching, Scratching, and Sleep Parameters. Itching, observed scratching, and sleep disturbance were recorded twice each day via eDiary. Patients and/or caregivers were instructed to complete the eDiary every day in the morning after the patient woke and in the evening just before the patient went to sleep throughout the study. The eDiary included ObsRO and PRO items. The PRO items assessed severity of itch, aspects of sleep disturbance (morning diary only), and tiredness. The ObsRO items assessed severity of observed scratching, aspects of observed sleep disturbance (morning diary only), and signs of tiredness (evening diary only). […]
Statistical Analyses. […] After a minimum of 18 patients had completed the Week 16 visit, the pooled SD of change from baseline to Month 4 (Weeks 13-16 assessments) and available change from baseline to Month 6 (Weeks 21-24 assessments) in average monthly scratching score was calculated by an independent statistician to assess the need for sample size re-estimation. […]

[3] = system: patients with Alagille syndrome (ALGS); experiment: ASSERT pruritus responders: ObsRO sleep parameters
Description: as §1, §2

`CCCCC1(CCCC)CN(c2ccccc2)c2cc(SC)c(OCC(=O)N[C@@H](C(=O)N[C@@H](CC)C(=O)O)c3ccc(O)cc3)cc2S(=O)(=O)N1` [odevixibat, 1,1-dioxo-3,3-dibutyl-5-phenyl-7-methylthio-8-(N-{(R)-α-[N-((S)-1-carboxypropyl)carbamoyl]-4-hydroxybenzyl}carbamoylmethoxy)-2,3,4,5-tetrahydro-1,2,5-benzothiadiazepine] was tested, and the “pruritus responders reporting any TEAE” value ([1]; 21 of 28) was 75%, the “TEAEs leading to death or study drug discontinuation” value ([1]; pruritus responders) was “no TEAEs leading to death or study drug discontinuation were reported” and the “Any TEAE” value ([1]; pruritus responders, n=28) was 21 (75) n (%). For the same compound, the “Any TEAE: Mild” value ([1]; pruritus responders, n=28) was 10 (36) n (%), the “Any TEAE: Moderate” value ([1]; pruritus responders, n=28) was 8 (29) n (%) and the “Any TEAE: Severe” value ([1]; pruritus responders, n=28) was 3 (11) n (%). The “Drug-related TEAE: Abdominal pain” value ([1]; pruritus responders, n=28) was 1 (4) n (%), the “Drug-related TEAE: Abdominal pain upper” value ([1]; pruritus responders, n=28) was 1 (4) n (%) and the “Drug-related TEAE: Blood triglycerides increased” value ([1]; pruritus responders, n=28) was 1 (4) n (%). For the same compound, the “Drug-related TEAE: Diarrhea” value ([1]; pruritus responders, n=28) was 4 (14) n (%), the “Drug-related TEAE: Feces discolored” value ([1]; pruritus responders, n=28) was 1 (4) n (%) and the “Drug-related TEAE: Frequent bowel movements” value ([1]; pruritus responders, n=28) was 1 (4) n (%). For the same compound, the “Drug-related TEAE: Hematemesis” value ([1]; pruritus responders, n=28) was 1 (4) n (%), the “Drug-related TEAE: Hepatic enzyme increased” value ([1]; pruritus responders, n=28) was 1 (4) n (%) and the “Drug-related TEAE: INR increased” value ([1]; pruritus responders, n=28) was 1 (4) n (%). The “Drug-related TEAE: Nausea” value ([1]; pruritus responders, n=28) was 1 (4) n (%), the “Drug-related TEAE: Vomiting” value ([1]; pruritus responders, n=28) was 2 (7) n (%) and the “Drug-related TEAE: Weight decreased” value ([1]; pruritus responders, n=28) was 1 (4) n (%). For the same compound, the “Drug-related TEAEs” value ([1]; pruritus responders, n=28) was 8 (29) n (%), the “Drug-related serious TEAEs” value ([1]; pruritus responders, n=28) was 1 (4)^a n (%) and the “Serious TEAEs” value ([1]; pruritus responders, n=28) was 3 (11) n (%). For the same compound, the “TEAEs leading to discontinuation” value ([1]; pruritus responders, n=28) was 0 n (%), the “TEAEs leading to treatment interruption” value ([1]; pruritus responders, n=28) was 2 (7) n (%) and the “LS mean change from baseline in scratching score (ObsRO)” value ([2]; baseline to Weeks 21-24, 34 patients) was −1.69 points. For the same compound, the “improvement in pruritus (mean monthly ObsRO scratching score) observed as early as” value ([2]; onset of effect) was 1 week, the “percentage of patients who were pruritus responders (≥1-point reduction in monthly scratching score from baseline)” value ([2]; week 12) was 74% and the “percentage of patients who were pruritus responders (≥1-point reduction in monthly scratching score from baseline)” value ([2]; week 24 (weeks 21-24), n=35) was 80%. The “Days seeing blood due to scratching, Baseline Mean (SE)” value ([3]; n=28) was 35 (6) %, the “Days sleeping with caregiver, Baseline Mean (SE)” value ([3]; n=28) was 40 (9) % and the “Days with help falling asleep, Baseline Mean (SE)” value ([3]; n=28) was 59 (8) %. The “Days with soothing, Baseline Mean (SE)” value ([3]; n=28) was 68 (8) %, the “Daytime tiredness, Baseline Mean (SE)” value ([3]; n=28, scale 0-4) was 2.2 (0.2) and the “Days seeing blood due to scratching, Mean (SE) Change From Baseline” value ([3]; to weeks 21-24) was −30 (5) %. For the same compound, the “Days sleeping with caregiver, Mean (SE) Change From Baseline” value ([3]; to weeks 21-24) was −34 (8) %, the “Days with help falling asleep, Mean (SE) Change From Baseline” value ([3]; to weeks 21-24) was −44 (8) % and the “Days with soothing, Mean (SE) Change From Baseline” value ([3]; to weeks 21-24) was −53 (8) %. For the same compound, the “Days seeing blood due to scratching, Week 24 Mean (SE)” value ([3]; weeks 21-24, n=27) was 5 (2) %, the “Days sleeping with caregiver, Week 24 Mean (SE)” value ([3]; weeks 21-24, n=27) was 8 (5) % and the “Days with help falling asleep, Week 24 Mean (SE)” value ([3]; weeks 21-24, n=27) was 15 (6) %. For the same compound, the “Days with soothing, Week 24 Mean (SE)” value ([3]; weeks 21-24, n=27) was 16 (5) % and the “Daytime tiredness, Week 24 Mean (SE)” value ([3]; weeks 21-24, n=28, scale 0-4) was 1.0 (0.2).
